Experimental data: ChEMBL document CHEMBL1201862, “PubChem BioAssay data set” (2004)
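Compound exposure: 48 hours, 5 concentrations, 96-well plates. GI50 is the concentration that inhibits growth by half.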 Calls of active or inactive are those of the source. Rule as the data show it: active = GI50 up to about 1.1 µM and inactive = higher.

Columns and labels:
Test in all cases: DTP human tumour cell line panel, 48 h
MOLT-4 = system: MOLT-4
786-0 = system: 786-0
SF-539 = system: SF-539
RPMI-8226 = system: RPMI-8226
SK-MEL-28 = system: SK-MEL-28
SW-620 = system: SW-620
LOX IMVI = system: LOX IMVI
A549 = system: A549
UACC-62 = system: UACC-62
HCT-15 = system: HCT-15
SNB-19 = system: SNB-19
SF-295 = system: SF-295
COLO 205 = system: COLO 205
SR = system: SR
NCI-H23 = system: NCI-H23
RXF 393 = system: RXF 393
SK-MEL-5 = system: SK-MEL-5
HCT-116 = system: HCT-116
SK-OV-3 = system: SK-OV-3

Row | SMILES | GI50 (MOLT-4) | GI50 (786-0) | GI50 (SF-539) | GI50 (RPMI-8226) | GI50 (SK-MEL-28) | GI50 (SW-620) | GI50 (LOX IMVI) | GI50 (A549) | GI50 (UACC-62) | GI50 (HCT-15) [µM] | GI50 (SNB-19) | GI50 (SF-295) | GI50 (COLO 205) | GI50 (SR) | GI50 (NCI-H23) | GI50 (RXF 393) | GI50 (SK-MEL-5) | GI50 (HCT-116) | GI50 (SK-OV-3)
1 | ClC1c2ccccc2C2(c3ccccc3)OOC1(c1ccccc1)O2 (stereo unspecified) | 1.26 µM (inactive) | 1.61 µM (inactive) | 2.31 µM (inactive) | 0.716 µM (active) | 1.95 µM (inactive) | 1.39 µM (inactive) | 0.352 µM (active) | 1.86 µM (inactive) | 1.87 µM (inactive) | 1.53 | 1.7 µM (inactive) | 2.62 µM (inactive) | 1.87 µM (inactive) | 1.32 µM (inactive) | 1.8 µM (inactive) | 1.4 µM (inactive) | 1.51 µM (inactive) |  | 
2 | CCC/C=C1\CCC(CN(C)C)C1=O (stereo unspecified) | 2.88 µM (inactive) | 2.81 µM (inactive) | 10.8 µM (inactive) | 0.333 µM (active) | 6.52 µM (inactive) | 4.6 µM (inactive) | 7.35 µM (inactive) | 29.6 µM (inactive) | 14.6 µM (inactive) | 2.51 | 36.7 µM (inactive) | 24.1 µM (inactive) | 3.1 µM (inactive) | 2.49 µM (inactive) | 17.1 µM (inactive) |  | 16.7 µM (inactive) | 9.91 µM (inactive) | 36.3 µM (inactive)
3 | O=C(Nc1c(O)[nH]c(=S)[nH]c1=O)c1ccc2ccccc2n1 | > 100 µM (inactive) | > 100 µM (inactive) | > 100 µM (inactive) | > 100 µM (inactive) | > 100 µM (inactive) | > 100 µM (inactive) | > 100 µM (inactive) | > 100 µM (inactive) | > 100 µM (inactive) | > 100 | > 100 µM (inactive) | > 100 µM (inactive) | > 100 µM (inactive) | > 100 µM (inactive) | > 100 µM (inactive) |  | > 100 µM (inactive) | > 100 µM (inactive) | > 100 µM (inactive)
4 | Nc1ncnc2c1ncn2C1CC(OC2CCCCO2)C(CO)O1 (stereo unspecified) | 61.8 µM (inactive) | > 100 µM (inactive) | > 100 µM (inactive) | > 100 µM (inactive) | > 100 µM (inactive) | > 100 µM (inactive) | > 100 µM (inactive) | > 100 µM (inactive) |  | > 100 | > 100 µM (inactive) | > 100 µM (inactive) | > 100 µM (inactive) | > 100 µM (inactive) | > 100 µM (inactive) | > 100 µM (inactive) |  | > 100 µM (inactive) | > 100 µM (inactive)
5 | C1CCC(N=C2N(C3CCCCC3)C(=NC3CCCCC3)N2C2CCCCC2)CC1 | > 100 µM (inactive) | > 100 µM (inactive) |  | > 100 µM (inactive) | > 100 µM (inactive) | > 100 µM (inactive) | > 100 µM (inactive) | > 100 µM (inactive) | > 100 µM (inactive) | > 100 | > 100 µM (inactive) | > 100 µM (inactive) | > 100 µM (inactive) | > 100 µM (inactive) | > 100 µM (inactive) | > 100 µM (inactive) | > 100 µM (inactive) | > 100 µM (inactive) | > 100 µM (inactive)
6 | CC(=O)NC1=C(C)C(=O)c2c(nc3n2CCC3O)C1=N (stereo unspecified) | 1.95 µM (inactive) | 18.6 µM (inactive) | 4.15 µM (inactive) | > 100 µM (inactive) | 17.2 µM (inactive) | 13.3 µM (inactive) | 5.85 µM (inactive) | 30.8 µM (inactive) | 4.71 µM (inactive) | 19.2 | 25.1 µM (inactive) | 19.3 µM (inactive) | 18.9 µM (inactive) | > 100 µM (inactive) | 14.8 µM (inactive) |  | 13 µM (inactive) | 2.39 µM (inactive) | 28.2 µM (inactive)
